Source: ChEMBL document CHEMBL5696442, “Discovery of type II inhibitors of TGFβ-activated kinase 1 (TAK1) and mitogen-activated protein kinase kinase kinase kinase 2 (MAP4K2)” (J Med Chem, 2015)

Tests used:
[1] = target: Tyrosine-protein kinase Fyn (Homo sapiens) (UniProt P06241); test: Inhibition of FYN ACT labeling site in human Huh-7 cell lysate at 1 uM by KiNativ Profiling analysis relative to control; assay type: subcellular
[2] = target: T1, Aurora kinase A (Homo sapiens) (UniProt O14965); test: Inhibition of AurA Lys2 labeling site in human Huh-7 cell lysate at 1 uM by KiNativ Profiling analysis relative to control; assay type: subcellular
T1 sequence (whole entry): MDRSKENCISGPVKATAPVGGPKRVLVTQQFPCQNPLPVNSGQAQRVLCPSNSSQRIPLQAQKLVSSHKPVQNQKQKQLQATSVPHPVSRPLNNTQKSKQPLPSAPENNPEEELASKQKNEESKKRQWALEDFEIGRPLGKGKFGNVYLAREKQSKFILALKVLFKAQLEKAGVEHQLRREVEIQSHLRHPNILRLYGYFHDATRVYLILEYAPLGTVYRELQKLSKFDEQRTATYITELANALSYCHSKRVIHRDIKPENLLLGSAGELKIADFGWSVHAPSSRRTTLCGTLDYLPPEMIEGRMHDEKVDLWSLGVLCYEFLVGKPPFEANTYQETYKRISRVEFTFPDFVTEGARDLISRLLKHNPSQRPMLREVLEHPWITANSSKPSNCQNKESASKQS

[3] = target: Interferon-induced, double-stranded RNA-activated protein kinase (Homo sapiens) (UniProt P19525); test: Inhibition of PKR Lys2 labeling site in human Huh-7 cell lysate at 1 uM by KiNativ Profiling analysis relative to control; assay type: subcellular
Interferon-induced, double-stranded RNA-activated protein kinase (Homo sapiens), sequence (P19525 whole entry): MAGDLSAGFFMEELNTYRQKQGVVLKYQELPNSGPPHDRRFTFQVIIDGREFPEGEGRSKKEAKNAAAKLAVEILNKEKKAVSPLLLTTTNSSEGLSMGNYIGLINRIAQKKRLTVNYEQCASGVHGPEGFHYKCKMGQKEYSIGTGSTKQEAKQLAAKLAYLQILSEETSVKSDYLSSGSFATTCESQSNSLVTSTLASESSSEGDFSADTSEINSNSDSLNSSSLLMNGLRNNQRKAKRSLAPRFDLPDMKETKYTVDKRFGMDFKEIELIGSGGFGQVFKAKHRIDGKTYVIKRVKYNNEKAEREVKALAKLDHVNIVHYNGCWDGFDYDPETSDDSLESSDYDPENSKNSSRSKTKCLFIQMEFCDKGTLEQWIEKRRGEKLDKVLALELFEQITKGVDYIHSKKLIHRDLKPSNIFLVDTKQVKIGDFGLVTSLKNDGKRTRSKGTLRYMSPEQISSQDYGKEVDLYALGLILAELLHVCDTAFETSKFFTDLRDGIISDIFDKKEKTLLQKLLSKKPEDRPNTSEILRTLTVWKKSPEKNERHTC

[4] = target: T2, Serine/threonine-protein kinase D2 (Homo sapiens) (UniProt Q9BZL6); test: Inhibition of PKD2 Lys2 labeling site in human Huh-7 cells at 1 uM by KiNativ Profiling analysis relative to control; assay type: cell-based
T2 sequence (whole entry): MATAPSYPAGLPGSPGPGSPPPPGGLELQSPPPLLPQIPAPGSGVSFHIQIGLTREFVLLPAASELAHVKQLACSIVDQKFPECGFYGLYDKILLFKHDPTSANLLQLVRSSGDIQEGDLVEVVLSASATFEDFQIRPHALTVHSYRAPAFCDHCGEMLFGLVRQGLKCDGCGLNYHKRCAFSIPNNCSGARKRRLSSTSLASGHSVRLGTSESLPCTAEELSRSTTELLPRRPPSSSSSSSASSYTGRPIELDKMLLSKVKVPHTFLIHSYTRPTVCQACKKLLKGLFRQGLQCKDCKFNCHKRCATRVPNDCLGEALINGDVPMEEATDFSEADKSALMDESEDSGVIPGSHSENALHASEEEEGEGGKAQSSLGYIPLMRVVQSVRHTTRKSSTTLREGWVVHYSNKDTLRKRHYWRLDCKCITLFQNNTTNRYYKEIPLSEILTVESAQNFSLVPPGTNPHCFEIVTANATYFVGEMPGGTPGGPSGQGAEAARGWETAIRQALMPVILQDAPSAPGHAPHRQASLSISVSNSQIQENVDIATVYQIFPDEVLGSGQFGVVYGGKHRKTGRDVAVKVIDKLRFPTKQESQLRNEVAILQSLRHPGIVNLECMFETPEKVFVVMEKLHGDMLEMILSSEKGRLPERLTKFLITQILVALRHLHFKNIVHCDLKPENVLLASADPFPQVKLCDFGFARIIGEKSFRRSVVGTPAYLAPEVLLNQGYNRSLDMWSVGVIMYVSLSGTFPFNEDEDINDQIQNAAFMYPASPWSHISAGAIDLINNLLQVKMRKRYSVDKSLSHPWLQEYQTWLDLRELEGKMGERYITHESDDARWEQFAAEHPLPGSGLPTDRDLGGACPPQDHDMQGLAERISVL

[5] = target: T3, Dual specificity mitogen-activated protein kinase kinase 5 (Homo sapiens) (UniProt Q13163); test: Inhibition of MEK5 (unknown origin) at 1 uM by Ambit Kinomescan binding assay relative to control; values are per cent of control
T3 sequence (whole entry): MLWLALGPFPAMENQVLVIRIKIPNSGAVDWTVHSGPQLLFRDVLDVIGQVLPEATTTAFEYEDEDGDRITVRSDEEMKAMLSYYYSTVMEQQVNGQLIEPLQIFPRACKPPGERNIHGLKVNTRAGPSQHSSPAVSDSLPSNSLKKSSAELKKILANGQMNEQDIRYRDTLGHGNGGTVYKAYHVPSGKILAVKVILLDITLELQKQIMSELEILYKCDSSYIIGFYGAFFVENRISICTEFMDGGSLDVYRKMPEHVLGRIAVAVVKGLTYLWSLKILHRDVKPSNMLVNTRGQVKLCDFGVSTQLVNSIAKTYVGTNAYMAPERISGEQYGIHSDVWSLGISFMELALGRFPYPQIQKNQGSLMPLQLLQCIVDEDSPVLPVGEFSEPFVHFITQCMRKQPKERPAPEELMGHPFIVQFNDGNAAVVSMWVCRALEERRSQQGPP

[6] = target: Tyrosine-protein kinase ITK/TSK (Homo sapiens) (UniProt Q08881); test: Inhibition of ITK (unknown origin) at 1 uM by Ambit Kinomescan binding assay relative to control
Tyrosine-protein kinase ITK/TSK (Homo sapiens), sequence (Q08881 whole entry): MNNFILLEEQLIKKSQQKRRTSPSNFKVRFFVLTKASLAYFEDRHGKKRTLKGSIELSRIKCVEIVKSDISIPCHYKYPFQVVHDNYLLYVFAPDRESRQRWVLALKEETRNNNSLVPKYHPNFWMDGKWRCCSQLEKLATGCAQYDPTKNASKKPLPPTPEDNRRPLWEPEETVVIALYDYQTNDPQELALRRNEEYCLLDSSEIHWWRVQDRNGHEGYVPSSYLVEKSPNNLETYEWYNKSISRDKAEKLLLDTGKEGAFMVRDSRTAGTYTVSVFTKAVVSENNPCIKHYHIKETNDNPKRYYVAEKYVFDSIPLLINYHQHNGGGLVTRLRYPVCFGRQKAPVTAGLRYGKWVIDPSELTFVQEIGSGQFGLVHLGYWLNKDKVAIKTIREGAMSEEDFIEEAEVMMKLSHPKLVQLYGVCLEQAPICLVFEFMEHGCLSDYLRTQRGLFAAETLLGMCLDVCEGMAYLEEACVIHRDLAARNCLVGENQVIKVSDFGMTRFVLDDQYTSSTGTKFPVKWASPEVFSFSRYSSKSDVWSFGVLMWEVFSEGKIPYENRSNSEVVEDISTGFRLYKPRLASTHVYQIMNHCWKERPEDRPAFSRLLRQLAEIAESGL

[7] = target: Dual specificity mitogen-activated protein kinase kinase 2 (Homo sapiens) (UniProt P36507); test: Inhibition of MEK2 (unknown origin) at 1 uM by Ambit Kinomescan binding assay relative to control; values are per cent of control
Dual specificity mitogen-activated protein kinase kinase 2 (Homo sapiens), sequence (P36507 whole entry): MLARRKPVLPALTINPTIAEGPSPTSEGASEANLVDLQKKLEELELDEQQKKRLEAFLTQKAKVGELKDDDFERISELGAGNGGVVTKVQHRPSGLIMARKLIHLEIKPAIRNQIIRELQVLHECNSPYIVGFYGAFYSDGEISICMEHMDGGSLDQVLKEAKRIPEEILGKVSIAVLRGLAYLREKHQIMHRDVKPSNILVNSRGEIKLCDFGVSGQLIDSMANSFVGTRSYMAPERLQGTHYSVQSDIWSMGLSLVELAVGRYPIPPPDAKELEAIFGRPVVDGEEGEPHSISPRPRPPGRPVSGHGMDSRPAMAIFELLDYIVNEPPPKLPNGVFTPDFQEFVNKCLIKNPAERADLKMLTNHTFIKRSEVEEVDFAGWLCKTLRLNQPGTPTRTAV

[8] = target: T4, Myotonin-protein kinase (Homo sapiens) (UniProt Q09013); test: Inhibition of DMPK (unknown origin) at 1 uM by Ambit Kinomescan binding assay relative to control; values are per cent of control
T4 sequence (whole entry): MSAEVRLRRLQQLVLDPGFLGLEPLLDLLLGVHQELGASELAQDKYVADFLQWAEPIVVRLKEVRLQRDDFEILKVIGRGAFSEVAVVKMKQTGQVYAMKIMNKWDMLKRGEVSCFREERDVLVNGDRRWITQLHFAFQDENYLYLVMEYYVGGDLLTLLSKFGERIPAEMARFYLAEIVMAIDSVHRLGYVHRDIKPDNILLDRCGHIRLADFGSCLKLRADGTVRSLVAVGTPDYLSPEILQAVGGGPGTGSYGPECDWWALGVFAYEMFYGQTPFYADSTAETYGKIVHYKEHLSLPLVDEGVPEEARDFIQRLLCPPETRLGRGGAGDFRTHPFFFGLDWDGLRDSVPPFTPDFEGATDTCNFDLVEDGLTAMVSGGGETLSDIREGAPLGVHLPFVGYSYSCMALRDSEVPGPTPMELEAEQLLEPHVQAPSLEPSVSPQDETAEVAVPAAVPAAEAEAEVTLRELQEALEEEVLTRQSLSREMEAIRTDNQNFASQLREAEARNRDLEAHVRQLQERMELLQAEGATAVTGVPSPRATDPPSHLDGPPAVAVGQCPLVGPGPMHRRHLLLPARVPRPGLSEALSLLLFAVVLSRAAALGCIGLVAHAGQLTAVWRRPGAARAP

Tyrosine-protein kinase Fyn (Homo sapiens), sequence (P06241 2-537 limits assumed): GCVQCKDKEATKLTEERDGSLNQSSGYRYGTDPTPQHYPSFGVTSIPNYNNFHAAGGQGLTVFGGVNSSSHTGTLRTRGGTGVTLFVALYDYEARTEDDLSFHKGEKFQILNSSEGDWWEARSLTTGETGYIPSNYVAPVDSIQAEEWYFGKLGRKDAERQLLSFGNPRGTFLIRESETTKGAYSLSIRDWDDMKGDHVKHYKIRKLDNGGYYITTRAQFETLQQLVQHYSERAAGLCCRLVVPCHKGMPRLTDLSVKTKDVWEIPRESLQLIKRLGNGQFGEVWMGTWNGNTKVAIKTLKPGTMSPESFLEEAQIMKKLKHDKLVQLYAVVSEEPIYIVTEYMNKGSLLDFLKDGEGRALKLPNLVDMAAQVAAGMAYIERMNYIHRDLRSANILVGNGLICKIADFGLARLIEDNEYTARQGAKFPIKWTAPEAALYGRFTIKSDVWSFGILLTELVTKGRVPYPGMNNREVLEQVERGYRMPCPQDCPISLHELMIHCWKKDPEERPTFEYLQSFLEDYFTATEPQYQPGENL

Compound: CNc1cc(Oc2cc(C(=O)Nc3cc(N4CCN(C)CC4)cc(C(F)(F)F)c3)ccc2C)ncn1
- inhibition [1]: 22%
- inhibition [2]: 6.6%
- inhibition [3]: -3.6%
- inhibition [4]: 9%

Compound: CCN1CCN(Cc2ccc(NC(=O)c3ccc(C)c(/C=C/c4cnc5[nH]ccc5c4OC)c3)cc2C(F)(F)F)CC1
- residual activity [5]: 1.4%
- inhibition [6]: 81%
- residual activity [7]: 74%
- residual activity [8]: 100%
